Patent US20240083897A1, “GCN2 MODULATING COMPOUNDS AND USES THEREOF” (HiberCell, Inc., priority 2021, published 2024)
Structures can show the parent of a compound that is named as a salt. Where two headings read alike, the source gives them in different places.

Biological target: GCN2 (Homo sapiens (Human), UniProt Q9P2K8)
Experiment: TR-FRET biochemical assay for inhibition of GCN2
[1] = GCN2 2 nM, 100 nM GFP-eIF2a, 150 μM ATP, TR-FRET

Sequence of GCN2 (Q9P2K8 whole entry): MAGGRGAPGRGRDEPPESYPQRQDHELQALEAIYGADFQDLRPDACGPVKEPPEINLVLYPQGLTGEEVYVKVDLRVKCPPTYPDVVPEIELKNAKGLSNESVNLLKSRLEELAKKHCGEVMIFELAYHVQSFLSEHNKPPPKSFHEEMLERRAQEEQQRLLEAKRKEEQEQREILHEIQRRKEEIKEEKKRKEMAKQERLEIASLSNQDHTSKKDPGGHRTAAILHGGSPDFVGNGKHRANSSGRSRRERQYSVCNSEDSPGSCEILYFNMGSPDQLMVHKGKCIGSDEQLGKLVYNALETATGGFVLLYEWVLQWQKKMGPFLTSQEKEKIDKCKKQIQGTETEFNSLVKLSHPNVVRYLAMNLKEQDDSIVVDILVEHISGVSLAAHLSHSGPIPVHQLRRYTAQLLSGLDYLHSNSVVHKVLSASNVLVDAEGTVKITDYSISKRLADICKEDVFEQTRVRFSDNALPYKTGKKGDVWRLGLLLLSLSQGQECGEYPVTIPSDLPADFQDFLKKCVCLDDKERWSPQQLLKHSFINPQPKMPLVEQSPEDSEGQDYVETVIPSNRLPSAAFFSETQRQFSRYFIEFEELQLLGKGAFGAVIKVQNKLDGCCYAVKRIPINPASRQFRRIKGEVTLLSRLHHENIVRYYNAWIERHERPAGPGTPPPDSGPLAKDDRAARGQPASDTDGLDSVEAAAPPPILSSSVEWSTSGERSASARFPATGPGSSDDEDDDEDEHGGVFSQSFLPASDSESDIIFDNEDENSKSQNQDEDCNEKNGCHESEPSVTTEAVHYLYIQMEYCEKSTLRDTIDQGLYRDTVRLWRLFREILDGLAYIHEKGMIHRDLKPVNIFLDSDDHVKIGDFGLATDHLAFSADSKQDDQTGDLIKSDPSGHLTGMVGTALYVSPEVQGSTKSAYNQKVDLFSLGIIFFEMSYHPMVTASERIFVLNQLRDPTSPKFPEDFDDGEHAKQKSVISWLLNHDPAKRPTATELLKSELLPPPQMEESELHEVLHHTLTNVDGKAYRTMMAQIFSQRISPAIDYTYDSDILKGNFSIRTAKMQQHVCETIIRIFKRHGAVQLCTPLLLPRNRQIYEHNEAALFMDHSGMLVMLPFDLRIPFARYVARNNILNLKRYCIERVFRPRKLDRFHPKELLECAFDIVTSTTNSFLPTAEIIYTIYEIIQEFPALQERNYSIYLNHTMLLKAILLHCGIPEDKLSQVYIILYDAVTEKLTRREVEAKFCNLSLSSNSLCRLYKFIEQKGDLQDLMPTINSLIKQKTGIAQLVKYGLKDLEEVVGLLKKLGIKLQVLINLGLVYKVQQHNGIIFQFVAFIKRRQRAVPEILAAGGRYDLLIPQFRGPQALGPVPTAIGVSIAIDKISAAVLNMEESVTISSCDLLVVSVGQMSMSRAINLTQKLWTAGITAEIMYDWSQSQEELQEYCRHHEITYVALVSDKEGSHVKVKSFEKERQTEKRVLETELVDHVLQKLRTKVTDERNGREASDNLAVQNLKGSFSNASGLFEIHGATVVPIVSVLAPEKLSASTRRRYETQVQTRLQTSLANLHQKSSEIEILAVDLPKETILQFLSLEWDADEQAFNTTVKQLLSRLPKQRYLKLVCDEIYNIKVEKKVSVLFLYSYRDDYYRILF

Compound | IC50 [1] | IC50
COc1ncc(Cl)cc1S(=O)(=O)Nc1ccc(F)c(-c2ccc3c(-c4nc5c([nH]4)CCCC5)ncn3c2)c1F [Compound 147, 5-chloro-N-(2,4-difluoro-3-(1-(4,5,6,7-tetrahydro-1H-benzo[d]imidazol-2-yl)imidazo[1,5-a]pyridin-6-yl)phenyl)-2-methoxypyridine-3-sulfonamide] | < 50 nM | –
COc1ncc(F)cc1S(=O)(=O)Nc1ccc(F)c(-c2ccc3c(-c4nc5c([nH]4)CCCC5)ncn3c2)c1F [Compound 148, N-(2,4-difluoro-3-(1-(4,5,6,7-tetrahydro-1H-benzo[d]imidazol-2-yl)imidazo[1,5-a]pyridin-6-yl)phenyl)-5-fluoro-2-methoxypyridine-3-sulfonamide] | < 50 nM | –
Cc1ncc(F)cc1S(=O)(=O)Nc1ccc(F)c(-c2ccc3c(-c4nc5c([nH]4)CCCC5)ncn3c2)c1F [Compound 149, N-(2,4-difluoro-3-(1-(4,5,6,7-tetrahydro-1H-benzo[d]imidazol-2-yl)imidazo[1,5-a]pyridin-6-yl)phenyl)-5-fluoro-2-methylpyridine-3-sulfonamide] | < 50 nM | –
Cc1ncc(Cl)cc1S(=O)(=O)Nc1ccc(F)c(-c2ccc3c(-c4nc5c([nH]4)CCCC5)ncn3c2)c1F [Compound 150, 5-chloro-N-(2,4-difluoro-3-(1-(4,5,6,7-tetrahydro-1H-benzo[d]imidazol-2-yl)imidazo[1,5-a]pyridin-6-yl)phenyl)-2-methylpyridine-3-sulfonamide] | < 50 nM | –
COc1ncc(F)cc1S(=O)(=O)Nc1ccc(F)c(-c2cn3cnc(-c4ncc[nH]4)c3cn2)c1Cl [Compound 151, N-[2-chloro-4-fluoro-3-[1-(1H-imidazol-2-yl)imidazo[1,5-a]pyrazin-6-yl]phenyl]-5-fluoro-2-methoxypyridine-3-sulfonamide] | < 50 nM | –
CNC(=O)c1ncn2c1CC[C@H](c1c(F)ccc(NS(=O)(=O)c3cc(F)cnc3OC)c1Cl)C2 [Compound 152-1, (6R)-6-[2-chloro-6-fluoro-3-(5-fluoro-2-methoxypyridine-3-sulfonamido)phenyl]-N-methyl-5H,6H,7H,8H-imidazo[1,5-a]pyridine-1-carboxamide] | – | 50 to 500 nM
CNC(=O)c1ncn2c1CC[C@@H](c1c(F)ccc(NS(=O)(=O)c3cc(F)cnc3OC)c1Cl)C2 [Compound 152-2, (6S)-6-[2-chloro-6-fluoro-3-(5-fluoro-2-methoxypyridine-3-sulfonamido)phenyl]-N-methyl-5H,6H,7H,8H-imidazo[1,5-a]pyridine-1-carboxamide] | – | 50 to 500 nM
COC(=O)c1ccc2nc(-c3ncn4cc(-c5c(F)ccc(NS(=O)(=O)c6cc(F)cnc6OC)c5F)ncc34)[nH]c2c1 [Compound 153, methyl 2-[6-[2,6-difluoro-3-(5-fluoro-2-methoxypyridine-3-sulfonamido)phenyl]imidazo[1,5-a]pyrazin-1-yl]-3H-1,3-benzodiazole-5-carboxylate] | < 50 nM | –
CNC(=O)c1ncn2c1CO[C@@H](c1c(F)ccc(NS(=O)(=O)c3cc(Cl)cnc3OC)c1F)C2 [Compound 154-1, (6S)-6-[3-(5-chloro-2-methoxypyridine-3-sulfonamido)-2,6-difluorophenyl]-N-methyl-5H,6H,8H-imidazo[4,3-c][1,4]oxazine-1-carboxamide] | – | 50 to 500 nM
CNC(=O)c1ncn2c1CO[C@H](c1c(F)ccc(NS(=O)(=O)c3cc(Cl)cnc3OC)c1F)C2 [Compound 154-2, (6R)-6-[3-(5-chloro-2-methoxypyridine-3-sulfonamido)-2,6-difluorophenyl]-N-methyl-5H,6H,8H-imidazo[4,3-c][1,4]oxazine-1-carboxamide hydrochloride] | – | 50 to 500 nM
COc1ncc(F)cc1S(=O)(=O)Nc1ccc(F)c(-c2cn3cnc(-c4nc(-c5ccccc5)c[nH]4)c3cn2)c1F [Compound 156, N-[2,4-difluoro-3-[1-(4-phenyl-1H-imidazol-2-yl)imidazo[1,5-a]pyrazin-6-yl]phenyl]-5-fluoro-2-methoxypyridine-3-sulfonamide] | < 50 nM | –
COc1ncc(Cl)cc1S(=O)(=O)Nc1ccc(F)c(-c2cn3cnc(C(=O)NC(C)C)c3cn2)c1F [Compound 157, 6-[3-(5-chloro-2-methoxypyridine-3-sulfonamido)-2,6-difluorophenyl]-N-isopropylimidazo[1,5-a]pyrazine-1-carboxamide] | < 50 nM | –
COc1ncc(Cl)cc1S(=O)(=O)Nc1ccc(F)c(-c2cn3cnc(C(=O)NCC(C)C)c3cn2)c1F [Compound 158, 6-[3-(5-chloro-2-methoxypyridine-3-sulfonamido)-2,6-difluorophenyl]-N-(2-methylpropyl)imidazo[1,5-a]pyrazine-1-carboxamide] | < 50 nM | –
COc1ncc(Cl)cc1S(=O)(=O)Nc1ccc(F)c(-c2cn3cnc(C(=O)NCC(F)(F)F)c3cn2)c1F [Compound 159, 6-[3-(5-chloro-2-methoxypyridine-3-sulfonamido)-2,6-difluorophenyl]-N-(2,2,2-trifluoroethyl)imidazo[1,5-a]pyrazine-1-carboxamide] | < 50 nM | –
CNC(=O)c1ncn2c(F)c(-c3c(F)ccc(NS(=O)(=O)c4cc(Cl)cnc4OC)c3F)ncc12 [Compound 160, 6-[3-(5-chloro-2-methoxypyridine-3-sulfonamido)-2,6-difluorophenyl]-5-fluoro-N-methylimidazo[1,5-a]pyrazine-1-carboxamide] | < 50 nM | –
COc1ncc(Cl)cc1S(=O)(=O)Nc1ccc(F)c(-c2cn3cnc(C(=O)NCCO)c3cn2)c1F [Compound 161, 6-[3-(5-chloro-2-methoxypyridine-3-sulfonamido)-2,6-difluorophenyl]-N-(2-hydroxyethyl)imidazo[1,5-a]pyrazine-1-carboxamide] | < 50 nM | –
COc1ncc(Cl)cc1S(=O)(=O)Nc1ccc(F)c(-c2cn3cnc(C(=O)Nc4cnn(C)c4)c3cn2)c1F [Compound 162, 6-[3-(5-chloro-2-methoxypyridine-3-sulfonamido)-2,6-difluorophenyl]-N-(1-methylpyrazol-4-yl)imidazo[1,5-a]pyrazine-1-carboxamide] | < 50 nM | –
COc1ncc(Cl)cc1S(=O)(=O)Nc1ccc(F)c(-c2cn3cnc(C(=O)NCC4CCOCC4)c3cn2)c1F [Compound 163, 6-[3-(5-chloro-2-methoxypyridine-3-sulfonamido)-2,6-difluorophenyl]-N-(oxan-4-ylmethyl)imidazo[1,5-a]pyrazine-1-carboxamide] | < 50 nM | –
COc1ncc(Cl)cc1S(=O)(=O)Nc1ccc(F)c(-c2cn3cnc(C(=O)NCCS(C)(=O)=O)c3cn2)c1F [Compound 164, 6-[3-(5-chloro-2-methoxypyridine-3-sulfonamido)-2,6-difluorophenyl]-N-(2-methanesulfonylethyl)imidazo[1,5-a]pyrazine-1-carboxamide] | < 50 nM | –
CCNC(=O)c1ncn2cc(-c3c(F)ccc(NS(=O)(=O)c4cc(Cl)cnc4OC)c3F)ncc12 [Compound 165, 6-[3-(5-chloro-2-methoxypyridine-3-sulfonamido)-2,6-difluorophenyl]-N-ethylimidazo[1,5-a]pyrazine-1-carboxamide] | < 50 nM | –
COc1ncc(Cl)cc1S(=O)(=O)Nc1ccc(F)c(-c2cn3cnc(C(=O)NCC4CC4)c3cn2)c1F [Compound 166, 6-[3-(5-chloro-2-methoxypyridine-3-sulfonamido)-2,6-difluorophenyl]-N-(cyclopropylmethyl)imidazo[1,5-a]pyrazine-1-carboxamide] | < 50 nM | –
CCOc1ncc(Cl)cc1S(=O)(=O)Nc1ccc(F)c(-c2cn3cnc(C(=O)NC)c3cn2)c1F [Compound 167, 6-[3-(5-chloro-2-ethoxypyridine-3-sulfonamido)-2,6-difluorophenyl]-N-methylimidazo[1,5-a]pyrazine-1-carboxamide] | – | 50 to 500 nM
CNC(=O)c1ncn2cc(-c3c(F)ccc(NS(=O)(=O)c4cc(Cl)cnc4OC(C)C)c3F)ncc12 [Compound 168, 6-[3-(5-chloro-2-isopropoxypyridine-3-sulfonamido)-2,6-difluorophenyl]-N-methylimidazo[1,5-a]pyrazine-1-carboxamide] | – | 50 to 500 nM
CNC(=O)c1ncn2cc(-c3c(F)ccc(NS(=O)(=O)c4cc(Cl)cnc4OC4CC4)c3F)ncc12 [Compound 169, 6-[3-(5-chloro-2-cyclopropoxypyridine-3-sulfonamido)-2,6-difluorophenyl]-N-methylimidazo[1,5-a]pyrazine-1-carboxamide] | – | 50 to 500 nM
CNC(=O)c1ncn2c(F)c(-c3c(F)ccc(NS(=O)(=O)c4cc(F)cnc4OC)c3F)ncc12 [Compound 170, 6-[2,6-difluoro-3-(5-fluoro-2-methoxypyridine-3-sulfonamido)phenyl]-5-fluoro-N-methylimidazo[1,5-a]pyrazine-1-carboxamide] | – | 50 to 500 nM
COc1ncc(Cl)cc1S(=O)(=O)Nc1ccc(F)c(-c2cn3cnc(C(N)=O)c3cn2)c1F [Compound 171, 6-[3-(5-chloro-2-methoxypyridine-3-sulfonamido)-2,6-difluorophenyl]imidazo[1,5-a]pyrazine-1-carboxamide] | < 50 nM | –
COc1ncc(Cl)cc1S(=O)(=O)Nc1ccc(F)c(-c2cn3cnc(C(=O)NCCCN(C)C)c3cn2)c1F [Compound 172, 6-[3-(5-chloro-2-methoxypyridine-3-sulfonamido)-2,6-difluorophenyl]-N-[3-(dimethylamino)propyl]imidazo[1,5-a]pyrazine-1-carboxamide] | – | 50 to 500 nM
COc1ncc(Cl)cc1S(=O)(=O)Nc1ccc(F)c(-c2cn3cnc(C(=O)N[C@@H]4CCN(C)C4)c3cn2)c1F [Compound 173-1, (R)-6-(3-((5-chloro-2-methoxypyridine)-3-sulfonamido)-2,6-difluorophenyl)-N-(1-methylpyrrolidin-3-yl)imidazo[1,5-a]pyrazine-1-carboxamide] | – | 50 to 500 nM
COc1ncc(Cl)cc1S(=O)(=O)Nc1ccc(F)c(-c2cn3cnc(C(=O)N[C@H]4CCN(C)C4)c3cn2)c1F [Compound 173-2, (S)-6-(3-((5-chloro-2-methoxypyridine)-3-sulfonamido)-2,6-difluorophenyl)-N-(1-methylpyrrolidin-3-yl)imidazo[1,5-a]pyrazine-1-carboxamide] | < 50 nM | –
